These results are taken from patent US20060252708A1, “Compositions of flavones and long chain fatty acid derivatives isolated from plants and methods related thereto for the control of prostate disorders” (priority 2005, published 2006).

Common to all, as to format: cell-based
The target of one experiment is T1, androgen receptor (AR) (Homo sapiens, UniProt P10275).
T1 construct: The full length AR cDNA was cloned from human's adipose tissue using PCR; expressed in transfected cells; host or cells: U2OS cells
T1 sequence (P10275 1-920): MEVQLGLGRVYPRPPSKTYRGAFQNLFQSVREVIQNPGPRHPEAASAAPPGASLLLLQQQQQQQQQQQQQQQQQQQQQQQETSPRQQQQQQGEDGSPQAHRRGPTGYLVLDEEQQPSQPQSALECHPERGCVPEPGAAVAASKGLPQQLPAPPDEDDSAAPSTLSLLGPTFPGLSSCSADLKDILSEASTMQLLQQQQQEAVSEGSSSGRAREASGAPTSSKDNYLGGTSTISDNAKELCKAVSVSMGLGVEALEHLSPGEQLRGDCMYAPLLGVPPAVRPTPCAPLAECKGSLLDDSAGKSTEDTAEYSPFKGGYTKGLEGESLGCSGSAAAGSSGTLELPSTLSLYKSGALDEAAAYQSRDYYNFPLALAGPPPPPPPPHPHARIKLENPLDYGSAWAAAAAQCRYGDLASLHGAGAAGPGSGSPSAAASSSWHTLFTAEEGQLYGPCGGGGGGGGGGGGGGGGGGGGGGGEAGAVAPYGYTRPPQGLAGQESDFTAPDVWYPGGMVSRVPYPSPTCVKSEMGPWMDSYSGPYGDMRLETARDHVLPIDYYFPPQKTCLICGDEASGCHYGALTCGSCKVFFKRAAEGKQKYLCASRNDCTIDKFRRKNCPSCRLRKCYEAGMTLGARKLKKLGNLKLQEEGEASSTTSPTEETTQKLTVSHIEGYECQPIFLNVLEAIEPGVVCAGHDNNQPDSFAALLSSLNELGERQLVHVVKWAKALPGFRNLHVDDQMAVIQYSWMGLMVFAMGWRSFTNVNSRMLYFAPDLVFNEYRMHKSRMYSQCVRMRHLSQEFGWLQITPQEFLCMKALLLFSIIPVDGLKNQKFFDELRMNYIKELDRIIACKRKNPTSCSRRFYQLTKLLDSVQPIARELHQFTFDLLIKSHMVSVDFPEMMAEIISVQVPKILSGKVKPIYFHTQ
In words: Androgen receptor activation, luciferase reporter gene system in U2OS cells. To be noted: 10 nM andrusol, 24 hr incubation, FIG. 1 and FIG. 4. How it is done: The activation of AR was performed using a luciferase reporting gene system. The full length AR cDNA was cloned from human's adipose tissue using PCR. The primer sequence 1 used was 5′-[…]-3′ (SEQ ID NO:1); the primer sequence 2 used was 5′-[…]-3′ (SEQ ID NO:2). The amplified PCR products were inserted into an expression vector, and then sequenced. The reporter genes were constructed using luciferase detected carrier pGL3-Promoter manufactured by Promega Ltd. Three copies of AR response element were inserted into upstream of pGL3-promoter (element sequence 3 used was 5′-[…] -3′) (SEQ ID NO:3). The co-transfection experiments were conducted in 96-well plates using U2OS cells. 24 hours after transfection, 10 nM andrusol, DMSO (0.1%), and testing compounds were added into cell culture for further 24 hr incubation.
(A reporter such as luciferase makes a cellular process visible.)

For experiment [1], the system named is secreting PSA from LNCaP cells. The experiment is described as follows: ELISA of PSA secreted from LNCaP cells (inhibition of PSA secretion). The following applies: for Rate of inhibition (%): Table 2, PSA secretion; for inhibition at 1 µg/mL: concentration 1 ug/ml; for inhibition at 3 µg/mL: concentration 3 ug/ml; for inhibition at 6.25 µg/mL: concentration 6.25 ug/ml. The method, then:
For example, in cultured androgen-dependent prostate cancer cells as shown in An enzyme-linked immunoadsorbent assay was adopted to determine the level of secreting PSA from LNCaP cells, an androgen-dependent prostate epithelia cancer cells, by the above-mentioned flavones. At first, 100 μl polyclonal Ab at 4 μg/m was added to coat the microplate. They were placed for 12 hours at 4° C., and then washed by PBST and sealed the plate with PBST for 1 hour at 37° C. Supernatants from flavones or mock-treated cells were added into the plate to incubate at water bathed for 2 hours at 37° C. After washing, primary Ab at 200 ng/ml was added and incubated for 1 hour at 37° C. After washing, secondary Ab at 1:8000 was then added and incubated for 1 hour at room temperature. After washing, color reaction substrate was added and incubated for 10 min at dark, then added 2 N sulfuric acid to measure absorption at 492 nm.
On the technique in general: An ELISA detects its analyte on a solid surface through an enzyme-linked reagent.

The target of experiment [2] is T2, estrogen receptor-β (ERβ) (Homo sapiens, UniProt Q92731).
T2 construct: The full length ER-α and ER-β cDNA were separately cloned from human adipose tissue using PCR method; expressed in transfected cells; host or cells: U2OS cells
T2 sequence (Q92731 whole entry): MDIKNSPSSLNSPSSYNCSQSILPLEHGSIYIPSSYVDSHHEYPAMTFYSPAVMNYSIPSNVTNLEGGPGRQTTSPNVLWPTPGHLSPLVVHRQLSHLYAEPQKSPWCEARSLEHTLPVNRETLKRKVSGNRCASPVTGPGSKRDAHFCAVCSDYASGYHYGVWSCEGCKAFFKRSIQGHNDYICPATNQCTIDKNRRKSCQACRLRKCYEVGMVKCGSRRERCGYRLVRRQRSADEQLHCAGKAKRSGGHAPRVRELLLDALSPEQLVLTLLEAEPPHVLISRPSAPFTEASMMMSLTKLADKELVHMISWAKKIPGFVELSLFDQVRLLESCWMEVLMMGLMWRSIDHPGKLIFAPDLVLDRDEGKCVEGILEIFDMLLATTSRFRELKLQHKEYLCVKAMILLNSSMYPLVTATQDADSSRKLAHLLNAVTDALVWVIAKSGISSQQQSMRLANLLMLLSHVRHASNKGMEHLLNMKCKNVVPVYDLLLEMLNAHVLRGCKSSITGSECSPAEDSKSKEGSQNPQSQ
In words: Estrogen receptor-β activation, luciferase reporter gene system in U2OS cells. To be noted: 10 nM estradiol, 24 hr incubation, FIG. 3. How it is done: (§1) The activation evaluation of the ERs were performed using a luciferase reporter gene system. The full length ER-α and ER-β cDNA were separately cloned from human adipose tissue using PCR method. The primer sequence 4 (ERα) used was 5′-[…]-3′ (SEQ ID NO:4); the primer sequence 5 (ERα) used was 5′-[…]-3′(SEQ ID NO:5); the primer sequence 6 (ERβ) used was 5′-[…]-3′ (SEQ ID NO:6); the primer sequence 7 (ERβ) used was 5′-[…]-3′(SEQ ID NO:7). The amplified PCR products were inserted into expression vector and confirmed by sequencing. The report genes were constructed by using luciferase detected carrier pGL3-Promoter from Promega Ltd. Three copies of ER response element were inserted into the upstream of pGL3-Promoter (sequence 8 used was 5′-[…] -3′ (SEQ ID NO:8)). The co-transfection experiments were conducted in 96-well plates using U2OS cells. 24 hours after transfection, 10 nM estradiol, DMSO (0.1%), and testing compounds were added into cell culture for further 24 hr incubation.

Experiment [3] deals with T3, estrogen receptor-α (ERα) (Homo sapiens, UniProt P03372).
T3 construct: The full length ER-α and ER-β cDNA were separately cloned from human adipose tissue using PCR method; expressed in transfected cells; host or cells: U2OS cells
T3 sequence (P03372 1-595): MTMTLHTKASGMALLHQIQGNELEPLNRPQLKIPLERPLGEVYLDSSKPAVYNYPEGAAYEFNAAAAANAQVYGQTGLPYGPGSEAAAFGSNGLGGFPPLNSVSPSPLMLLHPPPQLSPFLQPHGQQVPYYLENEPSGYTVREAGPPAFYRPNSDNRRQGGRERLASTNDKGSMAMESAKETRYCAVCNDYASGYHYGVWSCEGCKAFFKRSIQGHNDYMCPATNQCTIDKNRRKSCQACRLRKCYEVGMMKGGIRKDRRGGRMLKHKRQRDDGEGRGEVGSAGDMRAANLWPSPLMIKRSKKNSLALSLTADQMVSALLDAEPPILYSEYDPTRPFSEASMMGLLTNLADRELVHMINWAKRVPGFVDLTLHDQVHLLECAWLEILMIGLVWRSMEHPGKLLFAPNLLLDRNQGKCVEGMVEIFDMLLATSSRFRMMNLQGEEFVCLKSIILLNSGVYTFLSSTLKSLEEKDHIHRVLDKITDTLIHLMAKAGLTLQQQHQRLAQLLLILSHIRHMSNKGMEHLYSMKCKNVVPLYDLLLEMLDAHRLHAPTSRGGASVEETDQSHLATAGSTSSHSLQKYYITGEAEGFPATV
The experiment is described as follows: Estrogen receptor-α activation, luciferase reporter gene system in U2OS cells. The following applies: 10 nM estradiol, 24 hr incubation, FIG. 2. How it is done:
as §1

[4] abbreviates: Homo sapiens, PSA secretion, read-out: Rate of inhibition (%).
[5] abbreviates: Homo sapiens, PSA secretion, concentration 12.5 ug/ml, read-out: Rate of inhibition (%).
Where [6] appears, read: Homo sapiens, PSA secretion, concentration 25 ug/ml, read-out: Rate of inhibition (%).
The mark [7] stands for this setting: Homo sapiens, PSA secretion, concentration 50 ug/ml, read-out: Rate of inhibition (%).

In the case of `CCC=CCC=CCC=CCCCCCCCC(=O)NCCO` [Long chain amide, N-(2-ethoxyl)-9,12,15-linolenamide], the “Inhibition of androgen receptor (AR) activation” value (from here on “Inhibition of androgen receptor”) on androgen receptor (AR) is listed as “Inhibition of androgen receptor (AR) activation”. Moreover, the “Rate of inhibition (%)” value in experiment [1] (concentration 5 ug/ml) is listed as 9.7%; in experiment [1] (concentration 12.5 ug/ml), 31%; in experiment [1] (concentration 20 ug/ml), 52%; in experiment [1] (concentration 25 ug/ml), 63%; in experiment [1] (concentration 50 ug/ml) it was 71%.

As for `CCC=CCC=CCC=CCCCCCCCC(=O)OC[C@@]1(O)O[C@H](CO)[C@@H](O)[C@@H]1O` [Octadecatrienoic acid fructoside, 9,12,15-octadecatrienoic acid 1-O-β-D-fructoside], the “Inhibition of androgen receptor” value at androgen receptor (AR) is “Inhibition of androgen receptor (AR) activation”. For the same compound, the “Rate of inhibition (%)” value in experiment [1] (concentration 5 ug/ml) is 23%; in experiment [1] (concentration 10 ug/ml), 40%; in experiment [1] (concentration 12.5 ug/ml), 57%; in experiment [1] (concentration 25 ug/ml), 76%.

What is called inhibition is the share of the control response that was lost under treatment. For the compound `O=c1c(O)c(-c2ccc(O)cc2)oc2cc(O)cc(O)c12` [kaempferol], in experiment [1] (setting [4]), the inhibition at 1 µg/mL stood at 53%, the inhibition at 3 µg/mL was found to be 60% and the inhibition at 6.25 µg/mL was 69%. Further, in experiment [1] (setting [5]), the inhibition at 12.5 µg/mL came to 65%. Besides, the inhibition at 25 µg/mL in experiment [1] (setting [6]) was 66%. Further, in experiment [1] (setting [7]), the inhibition at 50 µg/mL was 89%.

On to `O=c1cc(-c2ccc(O)c(O)c2)oc2cc(O)cc(O)c12` [luteolin], for which, in experiment [2], the “Effect on estrogen receptor-β (ERβ) activation” value is recorded as “Inhibition”. Further, the “Effect on estrogen receptor-α (ERα) activation” value in experiment [3] is on record as “Inhibition”. In addition, the “Inhibition of androgen receptor” value at androgen receptor (AR) is listed as “Inhibition of androgen receptor (AR) activation”. In experiment [1] (setting [4]), the inhibition at 1 µg/mL came to 37% and the inhibition at 3 µg/mL amounted to 48%. For the same compound, the inhibition at 10 µg/mL in experiment [1] (Homo sapiens, PSA secretion, concentration 10 ug/ml, read-out: Rate of inhibition (%)) worked out at 57%. Further, the inhibition at 20 µg/mL in experiment [1] (Homo sapiens, PSA secretion, concentration 20 ug/ml, read-out: Rate of inhibition (%)) turned out to be 67%. Further, the inhibition at 40 µg/mL in experiment [1] (Homo sapiens, PSA secretion, concentration 40 ug/ml, read-out: Rate of inhibition (%)) was found to be 100%.

For `O=C1C[C@@H](c2ccc(O)cc2)Oc2cc(O)cc(O)c21` [naringenin], the “Effect on estrogen receptor-β (ERβ) activation” value in experiment [2] is reported as “Inhibition”. Further, the “Effect on estrogen receptor-α (ERα) activation” value in experiment [3] is “Inhibition”. At androgen receptor (AR), the “Inhibition of androgen receptor” value is listed as “Inhibition of androgen receptor (AR) activation”. The inhibition at 6.25 µg/mL in experiment [1] (setting [4]) is 78%. In addition, in experiment [1] (setting [5]), the inhibition at 12.5 µg/mL worked out at 84%. Moreover, the inhibition at 25 µg/mL in experiment [1] (setting [6]) amounted to 87%. For the same compound, the inhibition at 50 µg/mL in experiment [1] (setting [7]) came to 88%.

For “hexadecanoic 1-O-β-D-fructoside [Hexadecanoic fructoside]”, the “Inhibition of androgen receptor” value at androgen receptor (AR) is “Inhibition of androgen receptor (AR) activation”. For the same compound, the “Rate of inhibition (%)” value in experiment [1] (concentration 5 ug/ml) was found to be 4.5%; in experiment [1] (concentration 12.5 ug/ml), 8.4%; in experiment [1] (concentration 25 ug/ml) it was 26%; in experiment [1] (concentration 50 ug/ml), 42%; in experiment [1] (concentration 100 ug/ml) it was 76%.
